Results published in patent US10858423B2, “Composition for the treatment of IGF-1R expressing cancer” (PIERRE FABRE MEDICAMENT, priority 2015, dated 2020).
Read-outs that look alike come from different tables or passages of the source. Where a SMILES comes first, the peptide text is derived from it. [ ]: non-standard residue; d: D form. The star is where a group is joined. Dolaproine = CO[C@@H]([C@@H]1CCCN1)[C@@H](C)C(=O)O; Dil = CC[C@H](C)[C@H](NC)[C@@H](CC(=O)O)OC; X2 = CNc1ccc(CCN(C)[C@H](C(=O)*)C(C)C)cc1; X3 = CC(C)C(C(=O)*)N(C)CCc1ccc(C(=O)O)cc1; X1 = CC(C)[C@@H](C(=O)*)N(C)Cc1cccc(N)c1

Tests used:
IGF-1R = IGF-1R (Homo sapiens, UniProt P08069); conditions: background statement; cited from earlier work
lysosome functions = test: inhibition of antibody degradation by lysosome inhibitor; assay type: cell-based; conditions: cells with 10 μg/ml Ab, 2 h at 37° C.
Description: In order to confirm that second IGF-1R antibodies Ab reached the lysosome were they are degraded, cells were treated or not with bafilomycine A1, a potent inhibitor of lysosome functions. Cells were then incubated with 10 μg/ml of Ab to be tested at 4° C., washed and incubated for 2 h at 37° C. The internalized Ab was detected after cell permeabilisation using a secondary anti-mouse IgG-Alexa 488 Ab.

A549 cells = test: ATPlite antiproliferative assay, A549; assay type: cell-based; conditions: Homo sapiens
Description: (§1) A549 (Non Small Cell Lung Cancer—ATCC CCL-185) and MDA-MB-231 (breast adenocarcinoma—ATCC HTB-26) cells were cultured in Minimum Essential Medium Eagle (MEM) with 5% fetal calf serum (FCS) and Dulbecco's modified Eagle Medium (DMEM) with 10% FCS respectively. MCF7 (breast ductal carcinoma—ATCC HTB-22) and SN-12C (kidney carcinoma—ATCC) cells were maintained in RPMI1640 medium (without phenol red for MCF7 cells) containing 10% FCS. All the media were supplemented with fungizone (1.25 μg/mL) and penicillin-streptomycin (100 U/100 μg/mL). Cells were cultured under standard conditions in an incubator at 37° C., 5% CO2 and 95% atmospheric humidity.
(§2) Selected drugs were investigated for their antiproliferative activity using an ATPlite proliferation assay (Perkin Elmer, Villebon sur Yvette, France) on a comprehensive panel of 4 cell lines. Cells were seeded in 96 well plates (10^3 cells/well for A549, 2.10^3 for MCF7, MDA-MB-231 and SN12C) at day 0 at a concentration to ensure cells remained in logarithmic cell growth phase throughout the 72 h drug treatment period. After a 24 h incubation period, all the cells were treated with serial dilutions of the tested compounds (11 μL of a 10× solution in 1% DMSO—6 wells/condition). To avoid adherence of the compounds onto the tips, tips were changed between two consecutive dilutions. Cells were then placed in 37° C., 5% CO2 incubator. On day 4, cell viability was evaluated by dosing the ATP released by viable cells. The number of viable cells was analyzed in comparison with the number of solvent treated cells. The EC50 values were determined with curve fitting analysis (non linear regression model with a sigmoidal dose response, variable hill slope coefficient), performed with the algorithm provided by the GraphPad Software (GraphPad Software Inc., CA, USA).

MDA-MB-231 cells = test: ATPlite antiproliferative assay, MDA-MB-231; assay type: cell-based; conditions: Homo sapiens
Description: as §1, §2

MCF7 cells = test: ATPlite antiproliferative assay, MCF7; assay type: cell-based; conditions: Homo sapiens
Description: as §1
(§3) Selected drugs were investigated for their antiproliferative activity using an ATPlite proliferation assay (Perkin Elmer, Villebon sur Yvette, France) on a comprehensive panel of 4 cell lines. […] On day 4, cell viability was evaluated by dosing the ATP released by viable cells. The number of viable cells was analyzed in comparison with the number of solvent treated cells. The EC50 values were determined with curve fitting analysis (non linear regression model with a sigmoidal dose response, variable hill slope coefficient), performed with the algorithm provided by the GraphPad Software (GraphPad Software Inc., CA, USA).

SN-12C cells = test: ATPlite antiproliferative assay, SN12C; assay type: cell-based; conditions: Homo sapiens
Description: as §1, §3

[1] = A549, comparative examples table, read-out: EC50 (M) A549
[2] = MDA-MB-231, comparative examples table, read-out: EC50 (M) MDA-MB-231

Row | Compound | EC50 (A549 cells; [1]) [M] | EC50 (MDA-MB-231 cells; [2]) [M] | EC50 (MDA-MB-231 cells; MDA-MB-231, read-out: EC50) [M] | further results
1 | IGF2: insulin-like growth factor 2, ligand of IGF-1R |  |  |  | Kd (IGF-1R): ~1 nM
2 | CO/C1=C\C(C)=C\[C@@H](C)[C@@H](O)[C@@H](C)C/C(C)=C/C=C/[C@H](OC)[C@@H]([C@@H](C)[C@@H](O)[C@H](C)[C@@]2(O)C[C@@H](O)[C@H](C)[C@@H](C(C)C)O2)OC1=O [bafilomycine A1] |  |  |  | effect on degradation of intracellular Ab (lysosome functions): prevented the degradation of intracellular Ab
3 | CC[C@H](C)[C@@H]([C@@H](CC(=O)N1CCC[C@H]1[C@H](OC)[C@@H](C)C(=O)N[C@@H](Cc1ccccc1)C(=O)OC)OC)N(C)C(=O)[C@@H](NC(=O)C(C(C)C)N(C)CCc1ccc(C(=O)O)cc1)C(C)C (some centres unmarked) [compound 1, reference compound] (X3-V[Dil][Dolaproine]F-OMe) | 3.76e-09 | 2.29e-09 |  | 
4 | CC[C@H](C)[C@@H]([C@@H](CC(=O)N1CCC[C@H]1[C@H](OC)[C@@H](C)C(=O)N[C@@H](Cc1ccccc1)C(=O)OC)OC)N(C)C(=O)[C@@H](NC(=O)[C@H](C(C)C)N(C)CCc1ccc(NC)cc1)C(C)C [Compound 12, methyl (S)-2-((2R,3R)-3-((S)-1-((3R,4S,5S)-4-((S)—N,3-dimethyl-2-((S)-3-methyl-2-(methyl(4-(methylamino)phenethyl)amino)butanamido)butanamido)-3-methoxy-5-methylheptanoyl)pyrrolidin-2-yl)-3-methoxy-2-methylpropanamido)-3-phenylpropanoate, trifluoroacetic Acid] (X2-V[Dil][Dolaproine]F-OMe) | 1.48e-10 | 5.8e-10 | 5.8e-10 | 
5 | CC[C@H](C)[C@@H]([C@@H](CC(=O)N1CCC[C@H]1[C@H](OC)[C@@H](C)C(=O)N[C@@H](Cc1ccccc1)C(=O)OC)OC)N(C)C(=O)[C@@H](NC(=O)[C@H](C(C)C)N(C)Cc1cccc(N)c1)C(C)C [Compound 15, methyl (S)-2-((2R,3R)-3-((S)-1-((3R,4S,5S)-4-((S)-2-((S)-2-((3-aminobenzyl) (methyl)amino)-3-methylbutanamido)-N,3-dimethylbutanamido)-3-methoxy-5-methylheptanoyl)pyrrolidin-2-yl)-3-methoxy-2-methylpropanamido)-3-phenylpropanoate, trifluoroacetic Acid] (X1-V[Dil][Dolaproine]F-OMe) | 1.45e-10 | 1.7e-10 | 1.7e-10 | EC50 (A549 cells; A549, 72 h drug treatment, read-out: EC50 (M) A549): 1.45e-10 M; EC50 (A549 cells; A549, text bound, read-out: EC50): < 1e-07 M; EC50 (MDA-MB-231 cells; MDA-MB-231, 72 h, 72 h drug treatment, read-out: EC50 (M) MDA-MB-231): 1.7e-10 M; EC50 (MDA-MB-231 cells; MDA-MB-231, MDA-MB-231, text bound, read-out: EC50): < 1e-07 M; EC50 (MCF7 cells; 72 h drug treatment, read-out: EC50 (M) MCF-7): 7.15e-10 M; EC50 (MCF7 cells; MCF-7, text bound, read-out: EC50): < 1e-07 M; EC50 (SN-12C cells; 72 h drug treatment, read-out: EC50 (M) SN12C): 2.18e-10 M; EC50 (SN-12C cells; text bound, read-out: EC50): < 1e-07 M
6 | CC[C@H](C)[C@@H]([C@@H](CC(=O)N1CCC[C@H]1[C@H](OC)[C@@H](C)C(=O)N[C@@H](Cc1ccccc1)C(=O)O)OC)N(C)C(=O)[C@@H](NC(=O)C(C(C)C)N(C)CCc1ccc(C(=O)O)cc1)C(C)C (some centres unmarked) [compound 2, reference compound] (X3-V[Dil][Dolaproine]F-OH) | 4.03e-07 | 9.75e-07 |  | 
7 | CC[C@H](C)[C@@H]([C@@H](CC(=O)N1CCC[C@H]1[C@H](OC)[C@@H](C)C(=O)N[C@@H](Cc1ccccc1)C(=O)O)OC)N(C)C(=O)[C@@H](NC(=O)[C@H](C(C)C)N(C)CCc1ccc(NC)cc1)C(C)C [Compound 13, (S)-2-((2R,3R)-3-((S)-1-((3R,4S,5S)-4-((S)—N,3-dimethyl-2-((S)-3-methyl-2-(methyl(4-(methylamino)phenethyl)amino)butanamido)butanamido)-3-methoxy-5-methylheptanoyl)pyrrolidin-2-yl)-3-methoxy-2-methylpropanamido)-3-phenylpropanoic acid, trifluoroacetic Acid] (X2-V[Dil][Dolaproine]F-OH) | 2.71e-08 | 7.95e-08 | 7.95e-08 | 
